Test results published in ChEMBL document CHEMBL5143613, “Discovery of 6,7-dihydro-5H-pyrrolo[3,4-d] pyrimidine derivatives as a new class of ATR inhibitors” (Bioorg Med Chem Lett, 2022).

Legend:
[1] = Inhibition of recombinant full-length human ATR M211T mutant using GST-cMyc-p53 as substrate incubated for 40 mins by HTRF assay
[2] = test system: A2780; test: Anti-tumor activity against human A2780 cells assessed as inhibition of cell viability incubated for 72 hrs by MTT assay; assay type: functional, cell-based; conditions: A2780, 72 h
[3] = test system: MDA-MB-436; test: Anti-tumor activity against human MDA-MB-436 cells assessed as inhibition of cell viability incubated for 72 hrs by MTT assay; assay type: functional, cell-based; conditions: MDA-MB-436, 72 h
[4] = test system: MDA-MB-468; test: Anti-tumor activity against human MDA-MB-468 cells assessed as inhibition of cell viability incubated for 72 hrs by MTT assay; assay type: functional, cell-based; conditions: MDA-MB-468, 72 h
[5] = test system: LoVo; test: Anti-tumor activity against human LoVo cells assessed as inhibition of cell viability incubated for 72 hrs by MTT assay; assay type: functional, cell-based
[6] = test system: SW-620; test: Anti-tumor activity against human SW-620 cells assessed as inhibition of cell viability incubated for 72 hrs by MTT assay; assay type: functional, cell-based; conditions: SW-620, 72 h
[7] = test system: Granta-519; test: Anti-tumor activity against human Granta-519 cells assessed as inhibition of cell viability incubated for 72 hrs by MTT assay; assay type: functional, cell-based; conditions: Granta-519, 72 h
[8] = test system: CWR22R; test: Anti-tumor activity against human 22Rv1 cells assessed as inhibition of cell viability incubated for 72 hrs by MTT assay; assay type: functional, cell-based; conditions: 22Rv1, 72 h
[9] = test system: NCI-H23; test: Anti-tumor activity against human NCI-H23 cells assessed as inhibition of cell viability incubated for 72 hrs by MTT assay; assay type: functional, cell-based; conditions: NCI-H23, 72 h
[10] = test system: A2780; test: Inhibition of colony formation in human A2780 cells by crystal violet staining based analysis; assay type: functional, cell-based; conditions: dose 0.03-3 µM, DDE = dose-dependent effect
[11] = test system: A2780; test: Anti-migration activity against human A2780 cells assessed as inhibition of cell migration at 0.1 to 1 uM by wound healing assay; assay type: functional, cell-based; conditions: dose 0.1-1 µM, time 24-48 hrs, TDE = time-dependent effect
[12] = test system: A2780; test: Anti-migration activity against human A2780 cells assessed as inhibition of cell migration incubated for 24 to 48 hrs by wound healing assay; assay type: functional, cell-based; conditions: dose 0.1-1 µM, time 24-48 hrs, DDE = dose-dependent effect
[13] = biological target: Serine/threonine-protein kinase ATR (Homo sapiens) (UniProt Q13535); test: Inhibition of ATR in HU-treated human A2780 cells assessed as inhibition of ATR phosphorylation by Western blot assay; assay type: cell-based; conditions: dose 0.03-10 µM, DDE = dose-dependent effect
Chain of Serine/threonine-protein kinase ATR (Homo sapiens) (Q13535 whole entry, looked up): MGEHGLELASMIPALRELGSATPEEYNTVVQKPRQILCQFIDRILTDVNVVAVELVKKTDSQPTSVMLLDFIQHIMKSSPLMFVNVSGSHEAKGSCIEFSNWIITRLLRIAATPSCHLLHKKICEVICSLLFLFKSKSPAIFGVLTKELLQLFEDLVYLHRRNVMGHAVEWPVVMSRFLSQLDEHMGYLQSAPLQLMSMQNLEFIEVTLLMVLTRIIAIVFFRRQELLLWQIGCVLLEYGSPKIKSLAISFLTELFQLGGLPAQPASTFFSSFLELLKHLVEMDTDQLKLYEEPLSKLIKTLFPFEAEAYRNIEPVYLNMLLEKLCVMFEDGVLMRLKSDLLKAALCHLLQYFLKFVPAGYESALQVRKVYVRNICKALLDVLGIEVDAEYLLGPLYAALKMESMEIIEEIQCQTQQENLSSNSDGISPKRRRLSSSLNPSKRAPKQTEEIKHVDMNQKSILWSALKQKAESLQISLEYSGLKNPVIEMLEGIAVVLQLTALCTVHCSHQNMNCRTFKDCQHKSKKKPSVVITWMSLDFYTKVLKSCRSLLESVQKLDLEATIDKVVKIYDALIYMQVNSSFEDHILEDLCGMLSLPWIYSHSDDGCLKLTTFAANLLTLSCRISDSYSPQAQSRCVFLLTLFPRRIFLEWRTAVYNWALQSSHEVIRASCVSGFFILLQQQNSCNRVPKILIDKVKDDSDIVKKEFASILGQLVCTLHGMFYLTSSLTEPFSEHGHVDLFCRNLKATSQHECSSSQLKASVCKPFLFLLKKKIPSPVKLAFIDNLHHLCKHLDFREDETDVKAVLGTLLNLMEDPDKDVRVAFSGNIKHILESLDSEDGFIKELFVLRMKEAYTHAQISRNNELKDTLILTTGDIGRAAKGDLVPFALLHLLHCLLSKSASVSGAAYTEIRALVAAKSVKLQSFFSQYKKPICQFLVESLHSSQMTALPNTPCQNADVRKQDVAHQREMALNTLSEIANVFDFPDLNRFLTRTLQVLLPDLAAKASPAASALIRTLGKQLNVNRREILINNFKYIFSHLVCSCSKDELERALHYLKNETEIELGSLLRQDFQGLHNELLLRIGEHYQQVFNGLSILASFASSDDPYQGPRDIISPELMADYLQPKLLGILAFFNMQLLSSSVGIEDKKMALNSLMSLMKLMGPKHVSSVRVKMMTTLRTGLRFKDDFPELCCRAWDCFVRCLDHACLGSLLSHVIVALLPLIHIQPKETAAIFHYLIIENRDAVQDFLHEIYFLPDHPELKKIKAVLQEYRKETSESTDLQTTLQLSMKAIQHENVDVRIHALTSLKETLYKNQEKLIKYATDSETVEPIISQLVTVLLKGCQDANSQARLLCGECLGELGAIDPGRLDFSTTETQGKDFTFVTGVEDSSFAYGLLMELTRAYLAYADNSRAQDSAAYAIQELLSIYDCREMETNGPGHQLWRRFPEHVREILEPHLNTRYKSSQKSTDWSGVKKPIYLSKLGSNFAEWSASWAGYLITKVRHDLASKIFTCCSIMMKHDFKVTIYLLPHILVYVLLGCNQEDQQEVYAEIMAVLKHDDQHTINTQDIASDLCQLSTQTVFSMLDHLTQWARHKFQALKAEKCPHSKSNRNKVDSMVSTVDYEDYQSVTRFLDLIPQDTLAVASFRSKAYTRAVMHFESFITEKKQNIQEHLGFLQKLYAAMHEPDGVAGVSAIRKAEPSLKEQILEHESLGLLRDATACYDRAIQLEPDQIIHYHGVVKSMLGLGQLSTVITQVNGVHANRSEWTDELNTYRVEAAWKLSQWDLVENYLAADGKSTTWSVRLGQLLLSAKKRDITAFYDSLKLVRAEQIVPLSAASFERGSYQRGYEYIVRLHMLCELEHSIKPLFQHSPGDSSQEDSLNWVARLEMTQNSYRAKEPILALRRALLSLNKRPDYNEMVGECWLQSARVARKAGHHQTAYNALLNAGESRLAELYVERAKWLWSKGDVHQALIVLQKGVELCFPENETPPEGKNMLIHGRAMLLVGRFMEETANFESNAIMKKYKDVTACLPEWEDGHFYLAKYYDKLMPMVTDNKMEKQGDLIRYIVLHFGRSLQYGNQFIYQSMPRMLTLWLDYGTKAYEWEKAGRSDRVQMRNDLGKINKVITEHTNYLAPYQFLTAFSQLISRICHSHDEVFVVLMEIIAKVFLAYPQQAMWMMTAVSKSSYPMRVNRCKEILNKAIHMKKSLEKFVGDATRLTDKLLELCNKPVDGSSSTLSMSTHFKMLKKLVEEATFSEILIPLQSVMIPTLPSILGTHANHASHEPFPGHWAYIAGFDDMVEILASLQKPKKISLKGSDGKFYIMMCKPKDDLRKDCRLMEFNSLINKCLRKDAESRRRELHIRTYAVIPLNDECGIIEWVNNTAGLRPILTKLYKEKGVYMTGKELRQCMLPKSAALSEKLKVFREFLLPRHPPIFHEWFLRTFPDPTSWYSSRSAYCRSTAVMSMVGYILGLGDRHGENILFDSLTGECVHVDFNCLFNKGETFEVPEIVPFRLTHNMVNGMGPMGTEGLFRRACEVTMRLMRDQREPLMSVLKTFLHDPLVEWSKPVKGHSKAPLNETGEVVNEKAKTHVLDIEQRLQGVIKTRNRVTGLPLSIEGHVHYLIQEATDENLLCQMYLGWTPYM

[14] = biological target: Serine/threonine-protein kinase ATR (Homo sapiens) (UniProt Q13535); test: Inhibition of ATR in HU-treated human A2780 cells assessed as inhibition of Chk1 phosphorylation at Ser345 residue by Western blot assay; assay type: cell-based; conditions: dose 0.03-10 µM, DDE = dose-dependent effect
[15] = biological target: Serine/threonine-protein kinase ATR (Homo sapiens) (UniProt Q13535); test: Inhibition of ATR in human A2780 cells assessed as induction of DNA damage incubated for 3 days by DAPI staining based immunofluorescence analysis; assay type: cell-based; conditions: dose 1-10 µM, time 3.0 day, DDE = dose-dependent effect
[16] = biological target: Serine/threonine-protein kinase mTOR (Homo sapiens, UniProt P42345); test: Inhibition of human full length recombinant mTOR in presence of [gamma-33P]ATP incubated for 40 mins by radiometric scintillation counting analysis
[17] = biological target: FKBP12A/mTOR (Homo sapiens, UniProt P42345+P62942); test: Inhibition of human full length recombinant mTOR/FKBP12 in presence of [gamma-33P]ATP incubated for 40 mins by radiometric scintillation counting analysis; assay type: protein-complex assay
Chain of FKBP12A/mTOR (P62942 2-108 limits assumed, other chains not shown): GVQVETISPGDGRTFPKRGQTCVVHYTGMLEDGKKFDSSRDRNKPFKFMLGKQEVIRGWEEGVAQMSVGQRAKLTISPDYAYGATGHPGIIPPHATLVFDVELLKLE

[18] = biological target: PI3-kinase p110-delta/p85-alpha (Homo sapiens, UniProt O00329); test: Inhibition of recombinant human full length PI3K p110delta/p85a using phosphatidylinositol-4, 5-bisphosphate as substrate incubated for 40 mins in presence of [gamma33P]ATP by radiometric scintillation counting analysis; assay type: protein-complex assay
Chain of PI3-kinase p110-delta/p85-alpha (P27986 whole entry, the tested form may be a part): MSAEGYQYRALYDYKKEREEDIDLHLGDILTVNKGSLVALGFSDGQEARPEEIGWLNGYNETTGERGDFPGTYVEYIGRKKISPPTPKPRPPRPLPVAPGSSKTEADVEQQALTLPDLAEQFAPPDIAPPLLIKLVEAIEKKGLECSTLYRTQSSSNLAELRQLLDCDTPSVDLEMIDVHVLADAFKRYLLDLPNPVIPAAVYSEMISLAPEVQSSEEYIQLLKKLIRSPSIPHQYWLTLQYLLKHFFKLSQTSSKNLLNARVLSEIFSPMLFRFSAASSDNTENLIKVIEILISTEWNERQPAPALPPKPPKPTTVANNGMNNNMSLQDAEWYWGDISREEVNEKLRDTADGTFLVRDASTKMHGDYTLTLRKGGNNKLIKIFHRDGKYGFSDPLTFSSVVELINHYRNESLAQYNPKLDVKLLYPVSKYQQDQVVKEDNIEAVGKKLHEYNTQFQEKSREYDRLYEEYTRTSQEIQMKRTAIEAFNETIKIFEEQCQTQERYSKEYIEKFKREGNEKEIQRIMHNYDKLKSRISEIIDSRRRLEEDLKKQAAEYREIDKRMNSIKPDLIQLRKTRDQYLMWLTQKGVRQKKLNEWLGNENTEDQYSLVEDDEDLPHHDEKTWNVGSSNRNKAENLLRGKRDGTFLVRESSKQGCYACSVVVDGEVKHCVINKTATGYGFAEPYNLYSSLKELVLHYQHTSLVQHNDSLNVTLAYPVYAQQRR
Chain of PI3-kinase p110-delta/p85-alpha (O00329 whole entry, the tested form may be a part): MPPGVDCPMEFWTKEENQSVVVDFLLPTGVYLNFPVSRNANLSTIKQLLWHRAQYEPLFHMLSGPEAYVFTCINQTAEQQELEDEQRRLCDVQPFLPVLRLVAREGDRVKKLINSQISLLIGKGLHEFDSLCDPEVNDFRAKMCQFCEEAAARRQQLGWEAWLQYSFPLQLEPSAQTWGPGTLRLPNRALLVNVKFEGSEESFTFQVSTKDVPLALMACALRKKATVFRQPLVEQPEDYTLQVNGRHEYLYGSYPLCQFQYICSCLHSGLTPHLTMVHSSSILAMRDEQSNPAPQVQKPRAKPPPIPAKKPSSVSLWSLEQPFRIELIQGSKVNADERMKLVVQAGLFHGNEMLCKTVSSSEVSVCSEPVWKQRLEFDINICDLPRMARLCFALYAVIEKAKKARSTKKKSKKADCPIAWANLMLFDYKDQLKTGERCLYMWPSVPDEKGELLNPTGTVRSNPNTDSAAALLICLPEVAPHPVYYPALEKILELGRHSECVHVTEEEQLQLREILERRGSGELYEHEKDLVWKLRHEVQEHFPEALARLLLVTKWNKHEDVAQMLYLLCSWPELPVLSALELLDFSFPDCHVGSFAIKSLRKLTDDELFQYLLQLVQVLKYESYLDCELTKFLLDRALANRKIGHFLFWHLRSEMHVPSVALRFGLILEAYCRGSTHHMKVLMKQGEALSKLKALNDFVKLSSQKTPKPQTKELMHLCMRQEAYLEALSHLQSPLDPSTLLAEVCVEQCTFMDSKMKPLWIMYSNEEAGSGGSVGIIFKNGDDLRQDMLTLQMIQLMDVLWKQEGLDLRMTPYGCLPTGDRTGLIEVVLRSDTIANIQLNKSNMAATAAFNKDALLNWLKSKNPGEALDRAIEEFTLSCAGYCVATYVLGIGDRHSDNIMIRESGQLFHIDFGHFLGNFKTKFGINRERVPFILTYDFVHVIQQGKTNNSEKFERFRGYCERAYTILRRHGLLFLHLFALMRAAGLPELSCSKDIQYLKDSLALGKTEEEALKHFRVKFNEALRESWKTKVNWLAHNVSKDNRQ

[19] = biological target: Phosphatidylinositol 4-phosphate 3-kinase C2 domain-containing subunit alpha (Homo sapiens, UniProt O00443); test: Inhibition of human PI3K-C2alpha (299 to ens residues) using phosphatidylinositol-4, 5-bisphosphate as substrate incubated for 40 mins by HTRF assay
[20] = biological target: Serine/threonine-protein kinase B-raf (Homo sapiens, UniProt P15056); test: Inhibition of human recombinant B-Raf (416 to end residues) using myelin basic protein as substrate in presence of [gamma-33P]ATP incubated for 40 mins by radiometric scintillation counting analysis

O=S(=O)(C1CC1)N1Cc2nc(-c3c[nH]c4ccccc34)nc(NC3COC3)c2C1
IC50 [1]: 10000 nM

O=S(=O)(C1CC1)N1Cc2nc(-c3c[nH]c4ccccc34)nc(N3CC4CCC(C3)O4)c2C1
IC50 [1]: 544 nM

C[C@@H]1COCCN1c1nc(-c2cc[nH]n2)nc2c1CN(S(=O)(=O)C1CC1)C2
IC50 [1]: > 10000 nM

CCC(C)C(=O)N1Cc2nc(-c3c[nH]c4ccccc34)nc(N3CCOC[C@H]3C)c2C1 (some centres undefined)
IC50 [1]: 26 nM

C[C@@H]1COCCN1c1nc(-c2c[nH]c3ccccc23)nc2c1CN(C(=O)C1CC1)C2
IC50 [1]: 6 nM | IC50 [2]: 1190 nM | IC50 [3]: 1290 nM | IC50 [4]: 1820 nM | IC50 [5]: 2630 nM | IC50 [6]: 3.96 µM | IC50 [7]: 1630 nM | IC50 [8]: 1450 nM | IC50 [9]: 3.35 µM

C[C@@H]1COCCN1c1nc(-c2c[nH]c3ccccc23)nc2c1CN(S(=O)(=O)N(C)C)C2
IC50 [1]: 18 nM

C[C@@H]1COCCN1c1nc(-c2c[nH]c3ccccc23)nc2c1CN(C(=O)C(C)(C)C)C2
IC50 [1]: 25 nM

O=S(=O)(C1CC1)N1Cc2nc(-c3c[nH]c4ccccc34)nc(N3CCOCC3)c2C1
IC50 [1]: 891 nM

C[C@H]1COCCN1c1nc(-c2c[nH]c3ccccc23)nc2c1CN(S(=O)(=O)C1CC1)C2
IC50 [1]: 4950 nM

C[C@@H]1COCCN1c1nc(-c2c[nH]c3ncccc23)nc2c1CN(S(=O)(=O)C1CC1)C2
IC50 [1]: 2470 nM

C[C@H](CO)Nc1nc(-c2c[nH]c3ccccc23)nc2c1CN(S(=O)(=O)C1CC1)C2
IC50 [1]: 8360 nM

O=S(=O)(C1CC1)N1Cc2nc(-c3c[nH]c4ccccc34)nc(N3C4CCC3COC4)c2C1
IC50 [1]: 1390 nM

C[C@@H]1COCCN1c1nc(-c2c[nH]c3ccccc23)nc2c1CN(C(=O)C1CCNCC1)C2
IC50 [1]: 601 nM

C[C@@H]1COCCN1c1nc(-c2c[nH]c3ccccc23)nc2c1CN(S(=O)(=O)C1CC1)C2
IC50 [1]: 4 nM | IC50 [2]: 1350 nM | IC50 [3]: 1880 nM | IC50 [4]: 1740 nM | IC50 [5]: 2110 nM | IC50 [6]: 3.84 µM | IC50 [7]: 1860 nM | IC50 [8]: 2480 nM | IC50 [9]: 3.48 µM

C[C@@H]1COCCN1c1nc(-c2c[nH]c3ccccc23)nc2c1CN(C(=O)C(C)(C)C(F)(F)F)C2
IC50 [1]: 38 nM

C[C@@H]1CN(c2nc(-c3c[nH]c4ccccc34)nc3c2CN(S(=O)(=O)C2CC2)C3)C[C@H](C)O1
IC50 [1]: > 10000 nM

O=S(=O)(C1CC1)N1Cc2nc(-c3c[nH]c4ccccc34)nc(N3CC4CC3CO4)c2C1 (centres undefined)
IC50 [1]: > 10000 nM

C[C@@H]1COCCN1c1nc(-c2cccc3[nH]ccc23)nc2c1CN(S(=O)(=O)C1CC1)C2
IC50 [1]: 53 nM

C[C@@H]1COCCN1c1nc(-c2c[nH]c3ccccc23)nc2c1CN(C(=O)C(C)(C)CCl)C2
IC50 [1]: 10 nM

C[C@@H]1COCCN1c1nc(-c2c[nH]c3ccccc23)nc2c1CN(S(=O)(=O)C1CCCCC1)C2
IC50 [1]: 20 nM

C[C@@H]1COCCN1c1nc(-c2cnc3[nH]ccc3c2)nc2c1CN(S(=O)(=O)C1CC1)C2
IC50 [1]: 2710 nM

O=S(=O)(C1CC1)N1Cc2nc(-c3c[nH]c4ccccc34)nc(N3C[C@H]4COC[C@H]4C3)c2C1
IC50 [1]: > 10000 nM

CC(C)S(=O)(=O)N1Cc2nc(-c3c[nH]c4ccccc34)nc(N3CCOC[C@H]3C)c2C1
IC50 [1]: 7 nM | IC50 [2]: 670 nM | IC50 [3]: 950 nM | IC50 [4]: 1420 nM | IC50 [5]: 840 nM | IC50 [6]: 2.15 µM | IC50 [7]: 1020 nM | IC50 [8]: 1340 nM | IC50 [9]: 2.11 µM | inhibition [10]: Dde | Activity [11]: Tde | Activity [12]: Dde | inhibition [13]: Dde | inhibition [14]: Dde | inhibition [15]: Dde | IC50 [16]: 136 nM | IC50 [17]: 125 nM | IC50 [18]: 2150 nM | IC50 [19]: 2720 nM | IC50 [20]: 9.44 µM

C[C@@H]1COCCN1c1nc(-c2c[nH]c3ccccc23)nc2c1CN(C(=O)[C@H]1CCCO1)C2
IC50 [1]: 11 nM
